Test results: patent publication US7749491B2, “Compounds and methods to enhance rAAV transduction” (priority 2003, dated 2010)

Columns and labels:
[1] = system: polarized human bronchial epithelial cells; conditions: hypotonic EGTA solution; cited from earlier work
HeLa cells [2] = assay: AAV2 FLAG-Luc transduction of HeLa cells (luciferase screen of agents); type: cell-based
Text: A. To screen for agents that enhance rAAV transduction, any number of cells can be used. A range of concentrations of the agent to be tested can be determined based on, for instance desirable profiles of the agent, desirable toxicity profiles of the agent and/or concentration of the agents employed in vivo. The usefulness of the cell type chosen for the screen can be confirmed by testing compounds, e.g., proteosome inhibitors described in Example 1 such as LLnL and ZLL which are known to increase rAAV transduction. For example, a AAV2 FLAG-Luc vector was employed to transduce HeLa, ferret fibroblasts, IB3 and Huh (liver) cells in the presence or absence of the proteosome inhibitor MG132. MG132 was confirmed to enhance AAV transduction in all cell types tested: HeLa cell transduction was enhanced about 500-fold at 80 μM, and 200-fold at 40 μM, MG132; ferret fibroblast cell transduction was enhanced about 200-fold at 20 μM, and 17-fold at 4 μM, MG132; IB3-1 cell transduction was enhanced about 30 to 70-fold at 20 to 80 μM MG132; and Huh-7 cell transduction was enhanced about 15-fold at 20 to 80 μM MG132. There was no difference in rAAV transduction efficiency in HeLa cells when either DMSO or ETOH was used as a vehicle for MG132. B. HeLa cells were selected to screen for additional agents that enhance rAAV transduction, although any cell strain or line; or primary cells, may be employed. […] The range of concentrations of the agents to be tested were selected based on solubility profiles, toxicity profiles and/or concentrations previously employed in vivo.
HeLa cells were infected for 2 hours with an MOI of 100 rAAV in the presence of agents, e.g., ritonavir (Norvir) (1, 10 and 100 μM), cyclosporin A (2.5, 25 and 250 μg/ml), epoxomicin (1, 10 and 50 μM), alcacinomycin A (5, 50 or 500 μM), chymostatin (1, 10 and 100 μM), bestatin (1, 10 and 100 μM), doxorubicin (adriamycin) (0.1, 1 and 10 μM), camptothecin (camptosar) (1, 10 and 100 μM), eicosapentanoic acid (1, 10 and 100 μM), tannic acid (2, 20, 200 and 2000 μM), simvastatin, prodrug (2, 20 and 200 μM), cisplatin (0.2, 2 and 20 μg/mL), and chloroquine (4, 40 and 400 μM). Forty-eight hours after infection, cells were harvested for analysis. rAAV transduction was measured by removing the media from the cell cultures, adding 100 μL reporter lysis buffer (RLB) and freezing. The supernatant was thawed and transferred to microfuge tubes, freeze thawed an additional 2 times, clarified by centrifugation for 10 minutes and then analyzed for reporter gene expression on the luminometer. Protein was determined by Bradford analysis and results were expressed as relative light units per mg protein (RLU/mg).
Based on results with doxorubicin, a small number of FDA approved anthracyclines were tested for their relative in vitro and in vivo activities on AAV transduction. HeLa cells were infected with 100 ppc AAV2FLAG-Luc for 2 hours in the presence of different anthracyclines, e.g., doxorubicin, daunarubicin (Cerubidine), epirubicin (Ellence™), and idarubicin (Idamycin®), and cells harvested 48 hours later. The anthracyclines were pharmaceutical grade, and prepared according to the manufacturer's instructions. Prior to use, the agents were diluted in sterile water to an equal mass, e.g., 0.6 μg/mL, 3 μg/mL and 6 μg/mL. For example, 3 μg/mL idamycin increased luciferase expression by over 5000-fold while doxorubin increased luciferase expression by 58-fold. Generally, the potency was as follows: idarubicin>daunarubicin>epirubicin>doxorubicin.

HeLa cells [3] = assay: Luciferase rAAV transduction of HeLa cells with LLnL / doxorubicin; type: cell-based
Protocol: (§1) C. To determine whether combinations of agents that enhance rAAV transduction efficiency have synergistic or additive effects when used in combination, cells were contacted with the proteosome modulator, doxorubicin, and the proteosome inhibitor Z-LLL or LLnL. Different AAV vectors were tested, including splicing vectors and pseudotyped rAAV. Viral stocks utilized were as follows: Av2RSVluc, 5×10^8 particle/μl; Av2RSVlucCap5 (also referred to as Av2/5 CMVLuc), 2×10^9 particle/μl; Av2CMVluc, 1.3×10^9 particle/μl; and Av2CMVlucCap5, 1.1×10^9 particle/μl. Combinations of agents were compared to the agents used alone to determine the efficiency of transduction. LLnL was used at 40, 200 or 400 μM, Z-LLL at 4 μM and doxorubicin at 0.5 or 1 μM when employed alone. When a combination of LLnL and doxorubicin was used, LLnL was used at 4, 10, 20, 40, 200 or 400 μM and doxorubicin at 1 or 5 μM. The apical surface of polarized airway epithelia, HeLa cells or ferret fibroblast was contacted with the agents and rAAV (5×10^9 particles per well).

ferret fibroblast = assay: rAAV transduction of ferret fibroblasts with LLnL / doxorubicin; type: cell-based; conditions: for concentration at which transduction is enhanced: ferret fibroblast
Protocol: as §1

A549 cells = assay: AV2Luc / AV2/5Luc transduction of A549 cells with LLnL / doxorubicin; type: cell-based, human
[4] = system: polarized human airway epithelia; assay: Luciferase rAAV2 / rAAV5-capsid transduction of polarized human airway epithelia; type: cell-based; conditions: for enhancement of transduction from the apical surface: LLnL 40 μM and/or Dox 5 μM at the time of infection; for concentration at which transduction is enhanced: polarized airway epithelial cells
IB3 cells = assay: AV2Luc / AV2/5Luc transduction and nuclear uptake in IB3 cells; type: cell-based, human; conditions: rAAV2-infected IB3 cells; 40 μM LLnL or 1 μM Dox; 24 hours
Protocol: LLnL and Z-LLL are two tripeptidyl aldehydes shown to inhibit calpains, cathepsins, cysteine proteases as well as the chymotrypsin-like protease activity of proteasomes (Wagner et al., 2002; Donkor, 2000; Sasaki et al., 1990). […] Both classes of proteasome inhibitors bind tightly to the proteasome complex. Dose response curves for these two proteasome-modulating agents were evaluated on IB3, A549, Hela, and primary fibroblasts. The responses were consistent for a number of cell lines and for three different promoters driving luciferase expression. For one set, CMV-driven luciferase constructs with an AAV2-based genome were employed that were packaged into AV2 or AV5 capsids. Cells were infected at various doses of AV2Luc and AV2/5Luc (MOIs 100 to 1000 particles/cell). At the time of infection, cells were treated with various concentrations of LLnL or Doxorubicin and gene expression was assayed at 24 hours post-infection. The effect of proteasome inhibitors on nuclear uptake of virus was evaluated using a previously-described protocol for fractionating viral DNA in the cytoplasm and nucleus (Xiao et al., 2002). Viral DNA content in the cytoplasmic and nuclear fractions was then evaluated by slot blot hybridization against a Luciferase DNA probe.

[5] = system: polarized human bronchial epithelial cells; type: cell-based
Protocol: Primary culture of human bronchial epithelia and reagents utilized. Primary human airway epithelial cells were collected by enzymatic digestion of bronchial samples from lung transplants, as previously described (Kondo et al., 1991; Zabner et al., 1996). Isolated primary airway cells were seeded at a density of 5×10^5 cells/cm^2 onto collagen-coated Millicell-HA culture inserts (Millipore Corp., Bedford, Mass.). Primary cultures were grown at the air-liquid interface for more than 2 weeks, by which time differentiation into a mucociliary epithelium occurs. The culture medium, used to feed only the basolateral side of the cells, contained 49% DMEM, 49% Ham's F12 and 2% Ultraser G (BioSepra, Cedex, France). Dimethyl Sulphoxide (DMSO), camptothecin (Camp), etoposide (Etop), aphidicolin (Aphi), hydroxyurea (HU) and genistein (Geni) were purchased from Sigma (St. Louis, Mo.). Tripeptidyl aldehyde proteasome inhibitors N-Acetyl-L-Leucyl-L-Leucyl-Norleucine (LLnL) and benzyloxycarbonyl-L-leucyl-L-leucyl-L-leucinal (Z-LLL) were purchased from Calbiochem-Novabiochem Corporation (La Jolla, Calif.). Ubiquitin ligase (E3) inhibitors were obtained from Bachem Bioscience Inc. (King of Prussia, Pa.). Anti-AAV capsid monoclonal antibody (Anti-VP1, 2 and 3) was purchased from American Research Products (Belmont, Mass.) and anti-ubiquitin antibody was purchased from Santa Cruz Biotechnology Inc. (Santa Cruz, Calif.).
Transduction of polarized airway epithelial cells and primary human fibroblasts. rAAV infection of fully differentiated bronchial cells was performed as described in Duan et al. (1998). For infections from the apical surface of the airway cells, 5 μl rAAV was mixed with 50 μl of culture media and applied directly onto the apical compartment of Millicell inserts (MOI=10,000 particles/cell). During apical infection, the basolateral side of the Millicell was continuously bathed in culture media. Gene transfer to the basal side was performed by inverting Millicell inserts and applying viral vector to the bottom of the supporting filter membrane in a 50 μl volume for 2 hours. Subsequently, Millicell inserts were returned to the upright position, in the continued presence of the original viral inoculum plus an additional 450 μl of media. For both apical and basolateral infections, rAAV containing media was removed after 24 hours and replaced with either fresh culture media (for the basal side) or exposed to air (for the apical side). To test the effect of different agents on the efficiency of AAV transduction in polarized airway cells, 1 μl of each solution was mixed with AAV prior to infection of airway epithelia. Agents were usually presented during the 24 hours AAV infection period unless indicated otherwise. Most of the agents were dissolved in DMSO except for hydroxyurea (dissolved in phosphate buffered saline), H-Leu-Ala-OH (dissolved in 0.9% glacial acetic acid) and H-His-Ala-OH (dissolved in 50% methanol). The working concentrations of the agents were as follows: 0.1 μM camptothecin, 10 μM etoposide, 5 μg/ml aphidicolin, 40 mM hydroxyurea, 50 μM genistein, 40 μM LLnL and 4 μM Z-LLL. When the ubiquitin ligase (E3) inhibitors (H-Leu-Ala-OH and H-His-Ala-OH) were used, airway cells were pretreated with a combination of both inhibitors at a final concentration of 2 mM for 60 minutes prior to infection, followed by the continued presence of inhibitor (0.2 mM) during the entire 24 hours infection period from the basolateral surface. Studies involving EGTA treatment were performed by transiently treating the apical membrane of polarized airway epithelia with 3 mM EGTA in water for 10 minutes (Duan et al., 1998). Following hypotonic EGTA treatment, cultures were washed twice with culture medium and infected with rAAV in the presence or absence of 40 μM LLnL. Human primary fibroblast cells (P4) were maintained in 10% fetal bovine serum (FBS), 1% penicillin and streptomycin, and 89% DMEM. […]

[6] = Toxicity of proteasome inhibitors in mice; type: in vivo, mouse; conditions: 10, 100, and 1000 fold higher effective doses; intra-tracheal and systemic (IV) delivery
Protocol: Long-term enhancement of rAAV transduction by proteasome inhibitor in vivo. To evaluate the potential utility of proteasome inhibitors for in vivo gene therapy, both the toxicity and efficacy of these agents for in vivo rAAV mediated gene transfer in the mouse lung was tested. To assess the toxicity of these proteasome inhibitors in mice, 10, 100, and 1000 fold higher effective doses of LLnL or Z-LLL were administered than used to induce gene transfer in polarized airway cells, using both intra-tracheal and systemic (IV) delivery. No toxicity was indicated by histologic evaluation of the lung and liver or was evidenced by the death of animals. To investigate whether these proteasome inhibitors could improve rAAV transduction in vivo, AV.LacZ (5×10^10 particles) was delivered either alone or in the presence of 400 μM Z-LLL by intranasal administration. Mouse lungs were harvested at 3, 10 and 150 days post-infection to evaluate short and long term effects. […] Targeted transgene expression was predominantly confined to the conducting airways, rather than in the parenchyma. Alveolar cells were rarely transduced. […] The range of transgene expression in distal and proximal airways was 0 to 4% and 5 to 18%, respectively.

[7] = system: primary fetal fibroblasts; assay: rAAV transduction of primary fetal fibroblasts with LLnL, Dox or both; type: cell-based; conditions: LLnL by itself
Protocol: Hela, A549, IB3, and primary fetal fibroblasts were evaluated for AV2Luc and AV2/5Luc transduction in the presence of LLnL, Dox, or LLnL+Dox at various concentrations. The data shown is from Hela and A549 cells at the most optimal dose combination that induces rAV2Luc transduction to a greater extent than each compound alone.

Row | Molecule | increase of AAV transduction from the apical surface [1] | increase of luciferase expression (HeLa cells [2]; 3 μg/mL, 100 ppc AAV2FLAG-Luc 2 hours, harvested 48 hours) | outcome in cell line screening (HeLa cells [2]; HeLa screen) | concentration at which transduction is enhanced (HeLa cells [3]) | concentration at which transduction is enhanced (ferret fibroblast) | enhancement of transduction with lacZ splicing vectors (ferret fibroblast; ferret fibroblasts infected with lacZ splicing vectors) | concentration at which transduction is enhanced (A549 cells) | enhancement of transduction from the apical surface [4] | concentration at which transduction is enhanced [4] | fraction of viral DNA in the nuclear compartment (IB3 cells) | time of peak of augmentation in AAV transduction, mucosal co-administration ([5]; LLnL and rAAV to the mucosal surface) | augmentation in transgene expression ([5]; applied to the serosal surface along with rAAV, 2 days post infection, LLnL 40 μM) | toxicity to cells on continual administration ([5]; continual administration, transgene expression ablated by 10 days) | time of transient peak in gene expression, serosal infection ([5]; rAAV from the serosal surface in the presence of LLnL) | toxicity (histologic evaluation of lung and liver, death of animals) [6] | polarity of enhancement of AV2Luc and AV2/5Luc transduction ([4]; LLnL 40 μM, 5 and 14 days) | effect on AV2.RSVluc transduction ([4]; apical and basolateral infection) | increase of AV2.RSVlucCap5 transduction ([4]; virus applied to the apical surface) | induction of transduction [7]
1 | O=C(O)CN(CCOCCOCCN(CC(=O)O)CC(=O)O)CC(=O)O [EGTA] | 7 to 10 fold | – | – | – | – | – | – | – | – | – | – | – | – | – | – | – | – | – | –
2 | COc1cccc2c1C(=O)c1c(O)c3c(c(O)c1C2=O)C[C@@](O)(C(=O)CO)C[C@@H]3O[C@H]1C[C@H](N)[C@H](O)[C@H](C)O1 [doxorubicin] | – | 58 fold | tested positive | 1 µM | 1 µM | about 100 fold | 5 µM | 100 fold | 5 µM | significantly increased the fraction of viral DNA in the nuclear compartment | – | – | – | – | – | – | – | – | –
3 | N-acetyl-L-leucinyl-L-leucinal-L-norleucinal [LLnL] | – | – | – | 40 µM | 40 µM | – | 200 to 400 µM | 10 fold | 40 µM | significantly increased the fraction of viral DNA in the nuclear compartment | 22 days | greater than 200 fold | toxic to cells | 72 h | No toxicity | only apical transduction for both AAV serotypes was enhanced | augments AV2.RSVluc transduction from the apical and basolateral surfaces | 12 fold | 10 fold
